Values joined by “and” are separate entries in the source; they are usually repeats but may differ in a detail not shown here. Equal entries are not always repeated. Where two headings read alike, the source gives them in different places.
How the values were obtained:
DMPK2 = DMPK2 (Homo sapiens, UniProt Q6DT37); test: HotSpot kinase assay; conditions: read-out: % Enzyme Activity (relative to DMSO control), 10 uM
Source text: (§1) Additionally, a 10-dose dilution series of staurosporine and other enzyme-appropriate compounds were included as positive control inhibitors.

[1] = test system: HEK-293 cells stably overexpressing ALPK1; test: CXCL10, TNF, CXCL8 mRNA (qPCR); conditions: 30 h
CDK8/cyclin C = CDK8/cyclin C (Homo sapiens, UniProt P49336); test: HotSpot kinase assay; conditions: read-out: % Enzyme Activity (relative to DMSO control), 10 uM
Source text: as §1

c-Src = c-Src (Homo sapiens, UniProt P12931); test: HotSpot kinase assay; conditions: read-out: % Enzyme Activity (relative to DMSO control), 10 uM
[2] = test system: NF-κB reporter HEK-293 cells overexpressing ALPK1; test: NF-κB luciferase reporter
THP-1 macrophages = test: cells; conditions: Homo sapiens, THP-1, 4 h
NEK4 = NEK4 (Homo sapiens, UniProt P51957); test: HotSpot kinase assay; conditions: read-out: % Enzyme Activity (relative to DMSO control), 10 uM
EPHA1 = EPHA1 (Homo sapiens, UniProt P21709); test: HotSpot kinase assay; conditions: read-out: % Enzyme Activity (relative to DMSO control), 10 uM
AMPK(A2/B1/G1) = AMPK(A2/B1/G1) (Homo sapiens, UniProt P54646); test: HotSpot kinase assay; conditions: read-out: % Enzyme Activity (relative to DMSO control), 10 uM
AMPK(A2/B1/G1), sequence (P54646 whole entry): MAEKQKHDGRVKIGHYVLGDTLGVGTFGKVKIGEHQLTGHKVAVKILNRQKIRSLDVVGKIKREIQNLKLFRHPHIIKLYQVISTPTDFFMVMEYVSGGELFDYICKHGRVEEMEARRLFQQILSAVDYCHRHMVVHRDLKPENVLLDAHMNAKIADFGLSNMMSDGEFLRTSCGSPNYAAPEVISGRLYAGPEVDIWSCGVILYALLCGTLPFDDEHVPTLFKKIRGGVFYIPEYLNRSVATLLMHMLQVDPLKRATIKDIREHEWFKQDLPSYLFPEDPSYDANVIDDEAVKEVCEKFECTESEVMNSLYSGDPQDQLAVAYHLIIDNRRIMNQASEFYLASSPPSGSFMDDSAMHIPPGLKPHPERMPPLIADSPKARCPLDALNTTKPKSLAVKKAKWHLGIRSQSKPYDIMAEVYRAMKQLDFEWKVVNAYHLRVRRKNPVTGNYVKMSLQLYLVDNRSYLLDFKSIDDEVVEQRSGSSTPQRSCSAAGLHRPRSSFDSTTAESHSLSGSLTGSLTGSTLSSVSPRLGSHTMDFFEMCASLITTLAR
AMPK(A2/B1/G1), sequence (Q9Y478 whole entry partner): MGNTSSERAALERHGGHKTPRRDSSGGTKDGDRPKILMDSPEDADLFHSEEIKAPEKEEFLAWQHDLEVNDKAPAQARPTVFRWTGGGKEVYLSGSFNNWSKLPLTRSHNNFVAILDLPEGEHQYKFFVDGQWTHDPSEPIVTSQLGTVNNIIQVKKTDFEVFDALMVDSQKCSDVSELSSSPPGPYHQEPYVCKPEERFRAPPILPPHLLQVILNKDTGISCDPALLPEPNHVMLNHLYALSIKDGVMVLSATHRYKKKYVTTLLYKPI
AMPK(A2/B1/G1), sequence (P54619 whole entry partner): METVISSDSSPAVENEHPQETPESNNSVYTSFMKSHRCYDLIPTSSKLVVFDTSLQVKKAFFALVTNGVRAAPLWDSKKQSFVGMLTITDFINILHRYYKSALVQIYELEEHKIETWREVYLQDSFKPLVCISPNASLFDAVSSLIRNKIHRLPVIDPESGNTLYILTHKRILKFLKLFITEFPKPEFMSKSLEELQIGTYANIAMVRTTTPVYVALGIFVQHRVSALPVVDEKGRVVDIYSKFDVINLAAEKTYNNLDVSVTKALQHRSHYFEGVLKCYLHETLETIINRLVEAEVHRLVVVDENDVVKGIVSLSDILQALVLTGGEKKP
Source text: as §1

TYRO3/SKY = TYRO3/SKY (Homo sapiens, UniProt Q06418); test: HotSpot kinase assay; conditions: read-out: % Enzyme Activity (relative to DMSO control), 10 uM
Source text: as §1

CDK16/cyclin Y (PCTAIRE) = CDK16/cyclin Y (PCTAIRE) (Homo sapiens, UniProt Q00536); test: biochemical; conditions: read-out: % Enzyme Activity (relative to DMSO control), 10 uM
Source text: as §1

NEK1 = NEK1 (Homo sapiens, UniProt Q96PY6); test: HotSpot kinase assay; conditions: read-out: % Enzyme Activity (relative to DMSO control), 10 uM
Source text: as §1

STK33 = STK33 (Homo sapiens, UniProt Q9BYT3); test: HotSpot kinase assay; conditions: read-out: % Enzyme Activity (relative to DMSO control), 10 uM
NEK5 = NEK5 (Homo sapiens, UniProt Q6P3R8); test: HotSpot kinase assay; conditions: read-out: % Enzyme Activity (relative to DMSO control), 10 uM
Source text: as §1

LIMK1 = LIMK1 (Homo sapiens, UniProt P53667); test: HotSpot kinase assay; conditions: read-out: % Enzyme Activity (relative to DMSO control), 10 uM
LCK = LCK (Homo sapiens, UniProt P06239); test: HotSpot kinase assay; conditions: read-out: % Enzyme Activity (relative to DMSO control), 10 uM
Source text: as §1

CDK1/cyclin A = CDK1/cyclin A (Homo sapiens, UniProt P06493); test: HotSpot kinase assay; conditions: read-out: % Enzyme Activity (relative to DMSO control), 10 uM
CDK1/cyclin A, sequence (P20248 whole entry): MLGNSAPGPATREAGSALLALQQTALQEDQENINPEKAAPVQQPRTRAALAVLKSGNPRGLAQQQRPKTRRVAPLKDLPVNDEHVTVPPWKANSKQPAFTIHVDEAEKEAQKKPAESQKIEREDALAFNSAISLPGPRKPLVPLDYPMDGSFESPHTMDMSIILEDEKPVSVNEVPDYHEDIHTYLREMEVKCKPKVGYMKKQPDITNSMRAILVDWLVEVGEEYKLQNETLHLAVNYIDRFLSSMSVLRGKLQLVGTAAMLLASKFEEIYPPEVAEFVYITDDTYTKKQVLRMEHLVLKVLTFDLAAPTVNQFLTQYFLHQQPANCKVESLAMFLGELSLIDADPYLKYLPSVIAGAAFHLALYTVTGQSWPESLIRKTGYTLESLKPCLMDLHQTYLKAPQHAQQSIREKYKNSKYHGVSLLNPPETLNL
CDK1/cyclin A, sequence (P06493 whole entry): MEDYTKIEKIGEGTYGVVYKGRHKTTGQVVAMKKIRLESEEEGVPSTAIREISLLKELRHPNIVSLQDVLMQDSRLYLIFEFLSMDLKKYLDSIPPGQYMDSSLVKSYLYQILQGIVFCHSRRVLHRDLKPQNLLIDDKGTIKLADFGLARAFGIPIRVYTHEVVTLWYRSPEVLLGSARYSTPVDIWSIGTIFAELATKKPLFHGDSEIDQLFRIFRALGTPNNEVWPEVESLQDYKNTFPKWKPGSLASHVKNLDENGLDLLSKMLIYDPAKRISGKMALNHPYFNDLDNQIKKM
Source text: as §1

VRK1 = VRK1 (Homo sapiens, UniProt Q99986); test: HotSpot kinase assay; conditions: read-out: % Enzyme Activity (relative to DMSO control), 10 uM
VRK1, sequence (Q99986 whole entry): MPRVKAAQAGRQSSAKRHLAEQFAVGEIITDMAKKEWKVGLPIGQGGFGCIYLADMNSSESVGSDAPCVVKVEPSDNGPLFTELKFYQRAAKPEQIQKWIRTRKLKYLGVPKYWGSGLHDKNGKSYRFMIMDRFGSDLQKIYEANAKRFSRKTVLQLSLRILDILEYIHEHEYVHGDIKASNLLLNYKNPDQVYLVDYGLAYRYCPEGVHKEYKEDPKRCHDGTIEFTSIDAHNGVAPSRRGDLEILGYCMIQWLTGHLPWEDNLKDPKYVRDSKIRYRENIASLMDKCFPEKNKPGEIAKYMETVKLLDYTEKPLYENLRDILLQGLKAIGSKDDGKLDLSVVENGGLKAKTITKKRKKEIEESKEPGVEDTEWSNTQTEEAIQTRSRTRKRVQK
Source text: as §1

MST4 = MST4 (Homo sapiens, UniProt Q9P289); test: HotSpot kinase assay; conditions: read-out: % Enzyme Activity (relative to DMSO control), 10 uM
Source text: as §1

CK1a1 = CK1a1 (Homo sapiens, UniProt P48729); test: HotSpot kinase assay; conditions: read-out: % Enzyme Activity (relative to DMSO control), 10 uM
Source text: as §1

CDK6/cyclin D1 = CDK6/cyclin D1 (Homo sapiens, UniProt Q00534); test: HotSpot kinase assay; conditions: read-out: % Enzyme Activity (relative to DMSO control), 10 uM
Source text: as §1

PHKg1 = PHKg1 (Homo sapiens, UniProt Q16816); test: HotSpot kinase assay; conditions: read-out: % Enzyme Activity (relative to DMSO control), 10 uM
Source text: as §1

IKKe/IKBKE = IKKe/IKBKE (Homo sapiens, UniProt Q14164); test: HotSpot kinase assay; conditions: read-out: % Enzyme Activity (relative to DMSO control), 10 uM
Source text: as §1

KHS/MAP4K5 = KHS/MAP4K5 (Homo sapiens, UniProt Q9Y4K4); test: HotSpot kinase assay; conditions: read-out: % Enzyme Activity (relative to DMSO control), 10 uM
MLK3/MAP3K11 = MLK3/MAP3K11 (Homo sapiens, UniProt Q16584); test: HotSpot kinase assay; conditions: read-out: % Enzyme Activity (relative to DMSO control), 10 uM
Source text: as §1

AMPK (A1/B2/G3) = AMPK (A1/B2/G3) (Homo sapiens, UniProt Q13131); test: HotSpot kinase assay; conditions: read-out: % Enzyme Activity (relative to DMSO control), 10 uM
IKKb/IKBKB = IKKb/IKBKB (Homo sapiens, UniProt O14920); test: HotSpot kinase assay; conditions: read-out: % Enzyme Activity (relative to DMSO control), 10 uM
CDK6/cyclin D3 = CDK6/cyclin D3 (Homo sapiens, UniProt Q00534); test: HotSpot kinase assay; conditions: read-out: % Enzyme Activity (relative to DMSO control), 10 uM
Source text: as §1

TRKC = TRKC (Homo sapiens, UniProt Q16288); test: HotSpot kinase assay; conditions: read-out: % Enzyme Activity (relative to DMSO control), 10 uM
Source text: as §1

EPHA3 = EPHA3 (Homo sapiens, UniProt P29320); test: HotSpot kinase assay; conditions: read-out: % Enzyme Activity (relative to DMSO control), 10 uM
Source text: as §1

GRK3 = GRK3 (Homo sapiens, UniProt P35626); test: HotSpot kinase assay; conditions: read-out: % Enzyme Activity (relative to DMSO control), 10 uM
Source text: as §1

MEKK1 = MEKK1 (Homo sapiens, UniProt Q13233); test: HotSpot kinase assay; conditions: read-out: % Enzyme Activity (relative to DMSO control), 10 uM
MEKK1, sequence (Q13233 whole entry): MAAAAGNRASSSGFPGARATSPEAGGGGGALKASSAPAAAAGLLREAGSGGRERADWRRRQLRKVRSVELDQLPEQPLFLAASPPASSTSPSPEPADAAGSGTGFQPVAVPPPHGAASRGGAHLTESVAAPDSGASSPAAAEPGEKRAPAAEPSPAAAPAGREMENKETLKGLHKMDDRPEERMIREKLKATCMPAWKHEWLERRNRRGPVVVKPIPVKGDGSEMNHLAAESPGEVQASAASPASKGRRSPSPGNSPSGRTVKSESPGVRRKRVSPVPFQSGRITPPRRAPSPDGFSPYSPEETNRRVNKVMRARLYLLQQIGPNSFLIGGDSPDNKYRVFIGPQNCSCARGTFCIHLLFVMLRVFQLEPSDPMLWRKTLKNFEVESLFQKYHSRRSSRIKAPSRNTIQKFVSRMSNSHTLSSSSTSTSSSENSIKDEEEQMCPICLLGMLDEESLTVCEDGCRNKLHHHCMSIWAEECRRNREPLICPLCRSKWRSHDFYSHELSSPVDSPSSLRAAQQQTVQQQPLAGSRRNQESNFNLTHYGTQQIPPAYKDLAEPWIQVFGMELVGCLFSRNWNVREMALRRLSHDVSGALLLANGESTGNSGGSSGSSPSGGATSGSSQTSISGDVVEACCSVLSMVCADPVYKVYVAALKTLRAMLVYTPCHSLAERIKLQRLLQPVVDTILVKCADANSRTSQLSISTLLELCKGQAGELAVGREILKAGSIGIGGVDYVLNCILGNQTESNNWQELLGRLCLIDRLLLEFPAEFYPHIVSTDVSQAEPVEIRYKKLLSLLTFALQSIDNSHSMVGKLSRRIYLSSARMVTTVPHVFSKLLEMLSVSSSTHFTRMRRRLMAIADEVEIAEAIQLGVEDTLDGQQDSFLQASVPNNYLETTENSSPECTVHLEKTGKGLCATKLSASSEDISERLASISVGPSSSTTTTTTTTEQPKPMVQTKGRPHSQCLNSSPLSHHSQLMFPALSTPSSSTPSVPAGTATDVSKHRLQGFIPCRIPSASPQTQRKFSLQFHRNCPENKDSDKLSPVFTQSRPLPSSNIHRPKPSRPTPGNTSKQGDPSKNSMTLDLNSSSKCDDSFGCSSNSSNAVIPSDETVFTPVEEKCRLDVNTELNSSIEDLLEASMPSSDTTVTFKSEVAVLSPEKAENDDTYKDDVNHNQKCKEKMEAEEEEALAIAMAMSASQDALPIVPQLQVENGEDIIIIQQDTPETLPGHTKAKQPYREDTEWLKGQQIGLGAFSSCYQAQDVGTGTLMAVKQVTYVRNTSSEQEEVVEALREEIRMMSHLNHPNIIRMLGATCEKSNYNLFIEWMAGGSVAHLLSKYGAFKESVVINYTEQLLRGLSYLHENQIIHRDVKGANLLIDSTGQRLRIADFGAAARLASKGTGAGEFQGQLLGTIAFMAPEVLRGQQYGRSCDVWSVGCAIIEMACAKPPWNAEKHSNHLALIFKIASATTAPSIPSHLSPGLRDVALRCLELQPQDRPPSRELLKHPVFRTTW

CDK5/P25 = CDK5/P25 (Homo sapiens, UniProt Q00535); test: HotSpot kinase assay; conditions: read-out: % Enzyme Activity (relative to DMSO control), 10 uM
Source text: as §1

PDK2/PDHK2 = PDK2/PDHK2 (Homo sapiens, UniProt Q15119); test: HotSpot kinase assay; conditions: read-out: % Enzyme Activity (relative to DMSO control), 10 uM
ABL1 = ABL1 (Homo sapiens, UniProt P00519); test: HotSpot kinase assay; conditions: read-out: % Enzyme Activity (relative to DMSO control), 10 uM
Source text: as §1

VRK2 = VRK2 (Homo sapiens, UniProt Q86Y07); test: HotSpot kinase assay; conditions: read-out: % Enzyme Activity (relative to DMSO control), 10 uM
TTBK2 = TTBK2 (Homo sapiens, UniProt Q6IQ55); test: HotSpot kinase assay; conditions: read-out: % Enzyme Activity (relative to DMSO control), 10 uM
TTBK2, sequence (Q6IQ55 whole entry): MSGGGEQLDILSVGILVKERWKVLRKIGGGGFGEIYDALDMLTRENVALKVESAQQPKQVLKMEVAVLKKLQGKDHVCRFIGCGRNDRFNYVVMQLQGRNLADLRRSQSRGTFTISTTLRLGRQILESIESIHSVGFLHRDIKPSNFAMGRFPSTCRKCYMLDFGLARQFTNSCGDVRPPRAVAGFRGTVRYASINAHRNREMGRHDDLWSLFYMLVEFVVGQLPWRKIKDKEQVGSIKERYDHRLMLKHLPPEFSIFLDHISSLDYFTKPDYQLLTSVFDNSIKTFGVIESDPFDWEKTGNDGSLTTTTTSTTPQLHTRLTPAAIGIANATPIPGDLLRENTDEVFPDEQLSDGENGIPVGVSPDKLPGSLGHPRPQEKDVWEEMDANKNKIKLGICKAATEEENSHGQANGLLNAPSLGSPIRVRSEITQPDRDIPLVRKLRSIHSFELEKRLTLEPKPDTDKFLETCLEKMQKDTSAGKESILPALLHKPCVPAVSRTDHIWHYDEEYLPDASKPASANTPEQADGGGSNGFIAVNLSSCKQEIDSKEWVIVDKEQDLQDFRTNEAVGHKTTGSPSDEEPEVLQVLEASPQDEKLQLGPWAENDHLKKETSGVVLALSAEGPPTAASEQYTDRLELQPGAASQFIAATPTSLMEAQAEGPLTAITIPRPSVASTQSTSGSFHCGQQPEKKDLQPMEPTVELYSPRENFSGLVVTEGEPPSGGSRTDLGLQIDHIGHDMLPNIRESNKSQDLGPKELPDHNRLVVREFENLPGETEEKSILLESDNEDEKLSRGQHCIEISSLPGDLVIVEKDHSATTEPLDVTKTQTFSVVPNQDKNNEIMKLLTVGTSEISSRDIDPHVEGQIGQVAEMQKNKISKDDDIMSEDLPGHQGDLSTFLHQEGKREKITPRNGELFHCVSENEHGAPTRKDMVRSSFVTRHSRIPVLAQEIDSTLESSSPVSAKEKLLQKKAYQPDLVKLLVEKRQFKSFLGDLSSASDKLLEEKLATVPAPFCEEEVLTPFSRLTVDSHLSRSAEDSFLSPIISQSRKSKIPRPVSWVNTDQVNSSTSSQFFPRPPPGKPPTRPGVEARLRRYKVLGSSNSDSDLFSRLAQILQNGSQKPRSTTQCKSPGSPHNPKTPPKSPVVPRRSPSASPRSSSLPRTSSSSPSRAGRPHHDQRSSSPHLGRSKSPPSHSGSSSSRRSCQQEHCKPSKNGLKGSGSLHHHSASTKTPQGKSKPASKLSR
Source text: as §1

C#C[C@@](C)(c1ccc(Cl)cc1)c1csc(NC(=O)c2c(F)cc(N3CCNCC3)cc2F)n1 (stereo in doubt) [DF-003]
remaining activity at 10 µM (DMPK2): 74% | impact on basal expression of TNF, CXCL10, CXCL8 [1]: no impact | remaining activity at 10 µM (CDK8/cyclin C): 92.9% | remaining activity at 10 µM (c-Src): 129% | Luciferase signal ([2]; OE ALPK1, DF-003 3.174 nM): 1.097 and 1.020 and 1.022 | Luciferase signal ([2]; OE ALPK1, DF-003 10.029 nM): 0.986 and 1.052 and 0.781 | Luciferase signal ([2]; OE ALPK1, DF-003 31.691 nM): 1.122 and 1.009 and 1.070 | Luciferase signal ([2]; OE ALPK1, DF-003 100.144 nM): 1.037 and 1.150 and 1.192 | Luciferase signal ([2]; OE ALPK1, DF-003 316.456 nM): 1.532 and 0.863 and 1.106 | Luciferase signal ([2]; OE ALPK1, DF-003 1000.000 nM): 1.282 and 1.245 and 1.248 | Luciferase signal ([2]; OE ALPK1, DF-003 3160.000 nM): 0.913 and 0.816 and 0.878 | Luciferase signal ([2]; OE ALPK1, DF-003 10000.000 nM): 1.096 and 0.857 and 1.177 | IC50 (THP-1 macrophages; read-out: IC50, DF-006-induced CXCL8 upregulation): 6.5 nM | IC50 (THP-1 macrophages; read-out: IC50, DF-006-induced TNF upregulation): 8 nM | remaining activity at 10 µM (NEK4): 75.9% | remaining activity at 10 µM (EPHA1): 119% | remaining activity at 10 µM (AMPK(A2/B1/G1)): 83.4% | remaining activity at 10 µM (TYRO3/SKY): 51.8% | remaining activity at 10 µM (CDK16/cyclin Y (PCTAIRE)): 91.8% | remaining activity at 10 µM (NEK1): 106% | remaining activity at 10 µM (STK33): 93.9% | remaining activity at 10 µM (NEK5): 83.4% | remaining activity at 10 µM (LIMK1): 98.3% | remaining activity at 10 µM (LCK): 121% | remaining activity at 10 µM (CDK1/cyclin A): 109% | remaining activity at 10 µM (VRK1): 117% | remaining activity at 10 µM (MST4): 69.3% | remaining activity at 10 µM (CK1a1): 90.5% | remaining activity at 10 µM (CDK6/cyclin D1): 99.8% | remaining activity at 10 µM (PHKg1): 92.1% | remaining activity at 10 µM (IKKe/IKBKE): 104% | remaining activity at 10 µM (KHS/MAP4K5): 77.5% | remaining activity at 10 µM (MLK3/MAP3K11): 77.8% | remaining activity at 10 µM (AMPK (A1/B2/G3)): 82.6% | remaining activity at 10 µM (IKKb/IKBKB): 152% | remaining activity at 10 µM (CDK6/cyclin D3): 79.4% | remaining activity at 10 µM (TRKC): 91% | remaining activity at 10 µM (EPHA3): 117% | remaining activity at 10 µM (GRK3): 111% | remaining activity at 10 µM (MEKK1): 99.9% | remaining activity at 10 µM (CDK5/P25): 98.6% | remaining activity at 10 µM (PDK2/PDHK2): 85.3% | remaining activity at 10 µM (ABL1): 87.7% | remaining activity at 10 µM (VRK2): 113% | remaining activity at 10 µM (TTBK2): 98.2%

Reference: PMC12420824, “Discovery of a selective alpha-kinase 1 inhibitor for the rare genetic disease ROSAH syndrome” (Nature Communications, 2025)
